Measurements published in publication PMC6433934, “Preclinical Evaluation of Bispecific Adaptor Molecule Controlled Folate Receptor CAR-T Cell Therapy With Special Focus on Pediatric Malignancies” (Frontiers in Oncology, 2019).

Legend:
[1] = test system: E2-CAR-T cells; assay: 3H-EC17 radioligand binding to effector cells; parameters: species or system human; conditions: ^3H-EC17, E2-CAR-T cells ~100% EGFRt+, 1:1 CD8/CD4, 1.5 h room temperature, estimated from specific binding curve
Procedure: The bispecific affinities of EC17 CAM were assessed using ^3H-EC17 in cell-based radioligand binding assays. For binding to FR+ targets, KB and CHO-β cells were pre-seeded overnight in 24-well tissue culture plates and incubated with 0.1, 0.5, 1, 5, 10, 20, and 40 nM of ^3H-EC17 in FFRPMI for 2 h at 37°C. Afterwards, the cells were rinsed with phosphate-buffered saline (PBS, pH 7.4) and lysed with 1% sodium dodecyl sulfate. The whole cell lysates were quantitated for the level of radioactivity and cellular protein content by standard Pierce BCA protein assay. The number of ^3H-EC17 molecules bound per cell was calculated to determine the dissociation constants (Kd) for FRα (KB) and FRβ (CHO-β), respectively. […] Afterwards, the cells were washed 4x with PBS, lysed with 0.1% Triton X-100 plus 0.1 N NaOH and counted in a scintillation counter. The specific binding curve was generated by subtracting non-specific binding (^3H-EC17 plus “cold” EC17) from total binding (^3H-EC17) at each concentration of the radioligand.

[2] = EC17 dose finding safety study, tumor-free mice; type: in vivo; parameters: key to CRS grade: 0: normal (no CRS); 1: mild; 2: light-to-moderate; 3–4: severe CRS; 5: death (due to severe CRS); conditions: ~10 million E2-CAR-T cells
From the text: For MDA-MB-231 studies, mice received a high dose (~10 million) of a “clinical facsimile” of E2-CAR-T cells (~39% EGFRt+) with a low differentiation profile. Two days later, we started them with 3 different treatment regimens of EC17 at an average tumor size of ~293 ± 39 mm^3. The EC17 dosing was given once-a-week (SIW) at 500 nmol/kg on Mondays, or as escalating doses of 5, 50, or 100, and 500 or 1,000 nmol/kg on Monday, Thursday, and Monday with a 6 day break in-between cycles. Control mice were left untreated (received CAR-T cells but no EC17). For comparison, a cohort of tumor-free littermates also received the same number of CAR-T cells without or with EC17 SIW at 500 nmol/kg. To study the effect of high dietary folate, two sets of NSG mice were placed on either a FA-replete diet (4 mg/kg, Envigo, Indianapolis, IN) or a FA-deficient diet (TestDiet, St. Louis, MO) upon arrival. […]
Depending on the CAR-T cell dose and how EC17 is administered, tumor-bearing mice receiving FITC-specific CAR-T cells can experience severe CRS and varying degrees of body weight loss ([27], [33], [34]). […] On the days immediately following each EC17 dose, animals were scored and rescue agents such as sodium fluorescein, folic acid and leucovorin were used to mitigate CRS toxicity ([33]). […]

[3] = test system: MDA-MB-231 tumors; assay: Effect of dietary folate on CRS and antitumor activity; type: in vivo, NSG mice
Procedure: All animal care and use were performed according to NIH guidelines and in compliance with protocols approved by the Purdue University Animal Use and Care Committee. Female 4 to 5-weeks-old NOD/SCID gamma (NSG™) mice (stock number: 005557) were purchased from The Jackson Laboratory (Bar Harbor, ME). Unless specifically indicated, all animals were maintained on a FA-deficient diet (TestDiet, St. Louis, MO) upon arrival and throughout the study. To establish subcutaneous xenografts, MDA-MB-231 and HOS-FRα were implanted in the right flank region at 2.5 × 10^6 and 1 × 10^6 cells per animal, respectively. For intravenous xenografts, THP1-FRβ cells were inoculated at 5 × 10^6 cells per animal. Subcutaneous tumors were measured 2–3 times per week with a caliper and calculated using the ellipsoidal formula (length x width^2)/2. […] All animal doses (CAR-T cells, EC17, sodium fluorescein) were given intravenously.
For MDA-MB-231 studies, mice received a high dose (~10 million) of a “clinical facsimile” of E2-CAR-T cells (~39% EGFRt+) with a low differentiation profile. Two days later, we started them with 3 different treatment regimens of EC17 at an average tumor size of ~293 ± 39 mm^3. The EC17 dosing was given once-a-week (SIW) at 500 nmol/kg on Mondays, or as escalating doses of 5, 50, or 100, and 500 or 1,000 nmol/kg on Monday, Thursday, and Monday with a 6 day break in-between cycles. Control mice were left untreated (received CAR-T cells but no EC17). For comparison, a cohort of tumor-free littermates also received the same number of CAR-T cells without or with EC17 SIW at 500 nmol/kg. To study the effect of high dietary folate, two sets of NSG mice were placed on either a FA-replete diet (4 mg/kg, Envigo, Indianapolis, IN) or a FA-deficient diet (TestDiet, St. Louis, MO) upon arrival. On day 0, both sets of the mice received ~10 million of the same “clinical facsimile” CAR-T cells followed by no EC17 or EC17 SIW at 500 nmol/kg starting on day 3. On the first day of EC17 administration, MDA-MB-231 tumors size averaged around ~549 ± 184 mm^3 (280–918 mm^3) in FA-replete mice, and ~559 ± 165 mm^3 (356–961 mm^3) in FA-deficient mice.
Depending on the CAR-T cell dose and how EC17 is administered, tumor-bearing mice receiving FITC-specific CAR-T cells can experience severe CRS and varying degrees of body weight loss ([27], [33], [34]). Therefore, we developed a CRS grading system (0–5 scale) to empirically assess CRS toxicity from animals' gross morphology and social behavior to allow for better timing of CRS rescue. While grades 0 and 5 indicated normal (no CRS) or death (due to severe CRS), respectively, grades 1, 2, and 3–4 were considered mild, light-to-moderate, and severe CRS. In addition, all EC17 doses were intentionally given toward the end of any given day to allow potential CRS symptoms to develop overnight. On the days immediately following each EC17 dose, animals were scored and rescue agents such as sodium fluorescein, folic acid and leucovorin were used to mitigate CRS toxicity ([33]). In this particular instance, a batch of E2-CAR-T cells with a high EGFRt+ CD4/CD8 ratio (~93:7) was given to HOS-FRα tumor-bearing mice at a mixture of ~2.5 million CD8 and ~33 million CD4 on day 0. When EC17 was dosed, respectively, at 500, 100, and 500 nmol/kg on days 3, 10, and 12, low CRS (grades 1–2) was noted on days 4 and 11 but high CRS (grade 3) was noted on day 13. To mitigate the severe CRS toxicity, sodium fluorescein was intravenously administrated at ~96 mg/kg in the morning of day 13 and mouse plasma samples were collected 6 h later for analysis of CRS-associated cytokines.

[4] = FA-deficient diet, ~10 million E2-CAR-T cells, subsequent EC17 doses SIW 500 nmol/kg
[5] = FA-replete diet, EC17 SIW 500 nmol/kg, ~10 million E2-CAR-T cells, n = 5

Nc1nc2ncc(CNc3ccc(C(=O)NC(CCC(=O)NCCNC(=S)Nc4ccc(-c5c6ccc(=O)cc-6oc6cc(O)ccc56)c(C(=O)O)c4)C(=O)O)cc3)nc2c(=O)[nH]1 (stereo not drawn) [EC17, FA-(γ)-ethylenediamine-FITC]
Kd [1]: ~142 nM
CRS grade ([2]; 2 weekly doses EC17 500 nmol/kg, 0–5 scale): 0
CAR-T cell expansion by flow cytometry ([2]; EC17 SIW 500 nmol/kg): no CAR-T cell expansion was detected
cures ([3]; FA-deficient diet, EC17 SIW 500 nmol/kg, ~10 million E2-CAR-T cells, n = 5): 5/5
CD3ε+ EGFRt+ CAR-T cells in blood ([3]; FA-deficient diet, day 52, EC17 SIW 500 nmol/kg): 1.6–20.4 × 10^4 per 100 μL blood
CRS grade [3, 4]: 2–3
body weight loss [3, 4]: ≤ 11.4%
complete responses [3, 5]: 2/5
cures [3, 5]: 2/5
partial response [3, 5]: 1/5
CD3ε+ EGFRt+ CAR-T cells in blood ([3]; FA-replete diet, day 59, EC17 SIW 500 nmol/kg): 0.027–4.3 × 10^3 per 100 μL blood
CRS symptoms ([3]; FA-replete diet, ~10 million E2-CAR-T cells, EC17 SIW 500 nmol/kg): did not show symptoms of CRS
